Active and inactive are the calls of the source.

For data set [1], the system named is Canis familiaris. The experiment in a line: Percent change in Mean Blood pressure after intravenous administration of 0.3 mg/kg in Anesthetized Dogs. Format: functional, Canis lupus familiaris.
The test system of data set [2] is Canis familiaris. Kind of data set: Percent change in Mean Blood pressure after intravenous administration of 1 mg/kg in Anesthetized Dogs. Format: functional, Canis lupus familiaris.
Data set [3] concerns Canis familiaris. Kind of data set: Percent change in Mean Blood pressure after intravenous administration of 3 mg/kg in Anesthetized Dogs. Format: functional, Canis lupus familiaris.
Data set [4] has as its system Canis familiaris. The experiment in a line: Percent change in rate of left ventricular pressure after intravenous administration of 0.3 mg/kg in Anesthetized Dogs. Format: functional, Canis lupus familiaris, Heart left ventricle.
Data set [5] has as its system Canis familiaris. The experiment in a line: Percent change in rate of left ventricular pressure after intravenous administration of 1 mg/kg in Anesthetized Dogs. Format: functional, Canis lupus familiaris, Heart left ventricle.
Data set [6] deals with Canis familiaris. Kind of data set: Percent change in QTc interval after intravenous administration of 0.3 mg/kg in Anesthetized Dogs. Format: functional, Canis lupus familiaris.
The subject of data set [7] is Canis familiaris. Kind of data set: Percent change in QTc interval after intravenous administration of 1 mg/kg in Anesthetized Dogs. Format: functional, Canis lupus familiaris.
For data set [8], the system named is Canis familiaris. The experiment in a line: Percent change in QTc interval after intravenous administration of 3 mg/kg in Anesthetized Dogs. Format: functional, Canis lupus familiaris.
The test system of data set [9] is Canis familiaris. Kind of data set: Percent change in Heart rate after intravenous administration of 0.3 mg/kg in Anesthetized Dogs. Format: functional, Canis lupus familiaris.
Data set [10] has as its system Canis familiaris. Kind of data set: Percent change in Heart rate after intravenous administration of 1 mg/kg in Anesthetized Dogs. Format: functional, Canis lupus familiaris.
Data set [11] has as its system Canis familiaris. The experiment in a line: Percent change in Heart rate after intravenous administration of 3 mg/kg in Anesthetized Dogs. Format: functional, Canis lupus familiaris.
For data set [12], the system named is Canis familiaris. The experiment in a line: Percent change in Effective refractory period after intravenous administration of 0.3 mg/kg in Anesthetized Dogs. Format: functional, Canis lupus familiaris.
Data set [13] relates to Canis familiaris. The experiment in a line: Percent change in Effective refractory period after intravenous administration of 1 mg/kg in Anesthetized Dogs. Format: functional, Canis lupus familiaris.
The subject of data set [14] is Canis familiaris. Kind of data set: Percent change in Effective refractory period after intravenous administration of 3 mg/kg in Anesthetized Dogs. Format: functional, Canis lupus familiaris.
The species named for data set [15] is Cavia porcellus. The experiment in a line: Concentration (1-100 uM) that causes 10% prolongation in the action potential duration at 90% […] in Guinea pig right ventricular papillary muscles. Format: functional, Muscle tissue.
The species entered for data set [16] is Cavia porcellus. Kind of data set: Maximum percent increase in 90% repolarization at a concentration of 100 uM in Guinea pig right ventricular papillary muscles. Format: functional, Muscle tissue.
The species entered for data set [17] is Cavia porcellus. The experiment in a line: The maximum percent change in the maximum rate rise of the action Potential in Guinea pig right ventricular papillary muscles at concentration 1-100 uM; NS=Not significant. Format: functional. The following applies: Muscle tissue.
Data set [18] concerns Canis familiaris. The experiment in a line: Percent change in rate of left ventricular pressure after intravenous administration of 3 mg/kg in Anesthetized Dogs. Format: functional, Canis lupus familiaris, Heart left ventricle.
A short description of data set [19]: Half life of beta-elimination phase in plasma after oral administration of 10-50 mg/kg in conscious dogs; Range is 2.2-2.9. Format: ADME, organism-based, Canis lupus familiaris. The following applies: dog.
In data set [20] the test system is Canis familiaris. Kind of data set: Percent change in Mean Blood pressure after intravenous administration of 0.01 mg/kg in Anesthetized Dogs. Format: functional, Canis lupus familiaris.
The subject of data set [21] is Canis familiaris. The experiment in a line: Percent change in Mean Blood pressure after intravenous administration of 0.03 mg/kg in Anesthetized Dogs. Format: functional, Canis lupus familiaris.
Data set [22] concerns Canis familiaris. The experiment in a line: Percent change in Mean Blood pressure after intravenous administration of 0.1 mg/kg in Anesthetized Dogs. Format: functional, Canis lupus familiaris.
Data set [23] relates to Canis familiaris. The experiment in a line: Percent change in rate of left ventricular pressure after intravenous administration of 0.01 mg/kg in Anesthetized Dogs. Format: functional, Canis lupus familiaris, Heart left ventricle.
Data set [24] concerns Canis familiaris. Kind of data set: Percent change in rate of left ventricular pressure after intravenous administration of 0.03 mg/kg in Anesthetized Dogs. Format: functional, Canis lupus familiaris, Heart left ventricle.
In data set [25] the test system is Canis familiaris. The experiment in a line: Percent change in rate of left ventricular pressure after intravenous administration of 0.1 mg/kg in Anesthetized Dogs. Format: functional, Canis lupus familiaris, Heart left ventricle.
In data set [26] the test system is Canis familiaris. The experiment in a line: Percent change in QTc interval after intravenous administration of 0.03 mg/kg in Anesthetized Dogs. Format: functional, Canis lupus familiaris.
Data set [27] concerns Canis familiaris. The experiment in a line: Percent change in QTc interval after intravenous administration of 0.1 mg/kg in Anesthetized Dogs. Format: functional, Canis lupus familiaris.
Data set [28] relates to Canis familiaris. The experiment in a line: Percent change in Heart rate after intravenous administration of 0.01 mg/kg in Anesthetized Dogs. Format: functional, Canis lupus familiaris.
In data set [29] the test system is Canis familiaris. Kind of data set: Percent change in Heart rate after intravenous administration of 0.03 mg/kg in Anesthetized Dogs. Format: functional, Canis lupus familiaris.
Data set [30] has as its system Canis familiaris. Kind of data set: Percent change in Heart rate after intravenous administration of 0.1 mg/kg in Anesthetized Dogs. Format: functional, Canis lupus familiaris.
In data set [31] the test system is Canis familiaris. Kind of data set: Percent change in Effective refractory period after intravenous administration of 0.1 mg/kg in Anesthetized Dogs. Format: functional, Canis lupus familiaris.
Data set [32] has as its system Canis familiaris. The experiment in a line: Percent change in Effective refractory period after intravenous administration of 0.03 mg/kg in Anesthetized Dogs. Format: functional, Canis lupus familiaris.
The species entered for data set [33] is Cavia porcellus. The experiment in a line: The maximum percent change in the maximum rate rise of the action Potential in Guinea pig right ventricular papillary muscles at concentration 0.1-100 uM; NS=Not significant. Format: functional. To be noted: Muscle tissue.
The species entered for data set [34] is Cavia porcellus. Kind of data set: Concentration (0.1-100 uM) that causes 10% prolongation in the action potential duration at 90% […] in Guinea pig right ventricular papillary muscles. Format: functional, Muscle tissue.
In data set [35] the test system is Canis familiaris. The experiment in a line: Percent change in QTc interval after intravenous administration of 0.01 mg/kg in Anesthetized Dogs. Format: functional, Canis lupus familiaris.
Data set [36] deals with Canis familiaris. Kind of data set: Percent change in Effective refractory period after intravenous administration of 0.01 mg/kg in Anesthetized Dogs.
Data set [37] can be described thus: Half life of beta-elimination phase in plasma after oral administration of 10-50 mg/kg in conscious dogs; Range is 1.4-2.1. Format: ADME, organism-based, Canis lupus familiaris. To be noted: dog.
Data set [38] has as its system Canis familiaris. Kind of data set: Percent change in Effective refractory period after intravenous administration of 0.01 mg/kg in Anesthetized Dogs. Format: functional, Canis lupus familiaris.
In data set [39] the test system is Canis familiaris. The experiment in a line: Percent change in Heart rate after intravenous administration of 0.01 mg/kg in Anesthetized Dogs.
Data set [40] is filed under the species Cavia porcellus. Kind of data set: Concentration (1-10 uM) that causes 10% prolongation in the action potential duration at 90% […] in Guinea pig right ventricular papillary muscles. Format: functional, Muscle tissue.
The species named for data set [41] is Cavia porcellus. Kind of data set: Maximum percent increase in 90% repolarization at a concentration of 10 uM in Guinea pig right ventricular papillary muscles. Format: functional, Muscle tissue.
For data set [42], the species on record is Cavia porcellus. Kind of data set: The maximum percent change in the maximum rate rise of the action Potential in Guinea pig right ventricular papillary muscles, at compound concentration 1-10 uM; NS=Not significant. Format: functional. To be noted: Muscle tissue.
For data set [43], the system named is Canis familiaris. Kind of data set: Percent change in Heart rate after intravenous administration of 0.003 mg/kg in Anesthetized Dogs. Format: functional, Canis lupus familiaris.
Data set [44] deals with Canis familiaris. The experiment in a line: Percent change in Effective refractory period after intravenous administration of 0.003 mg/kg in Anesthetized Dogs. Format: functional, Canis lupus familiaris.
The species named for data set [45] is Cavia porcellus. Kind of data set: Concentration (0.1-10 uM) that causes 10% prolongation in the action potential duration at 90% […] in Guinea pig right ventricular papillary muscles. Format: functional, Muscle tissue.

Turning to `CC(C)NCC(O)c1ccc(NS(C)(=O)=O)cc1` (stereo not drawn) [SOTALOL], the “mBP(delta)” value in the data set on Canis familiaris [1] was 0%; in the data set with Canis familiaris [2], -7%; in the data set on Canis familiaris [3], -13%. Moreover, the “LV dP/dTmax(delta)” value is listed as -1% in the data set with Canis familiaris [4], -4% in the data set with Canis familiaris [5] and 5% in the data set with Canis familiaris [18]. The QTc delta was 4% in the data set with Canis familiaris [6], 11% in the data set with Canis familiaris [7] and 23% in the data set with Canis familiaris [8]. Also, the entries for the “HR(delta)” value in the data set on Canis familiaris [9], in the data set on Canis familiaris [10] and in the data set on Canis familiaris [11] were -6%, -19% and -30%, respectively. Also, the “ERP (delta)” value in the data set with Canis familiaris [12] is 5%; with Canis familiaris [13], 14%; in the data set with Canis familiaris [14], 26%. Also, the C10APD90 in the data set listed under Cavia porcellus [15] was 16.3 µM. For the same compound, the “Max APD90 (delta)” value in the data set listed under Cavia porcellus [16] is given as 21%. The Vmax entry in the data set filed under Cavia porcellus [17] is “inactive”.
What is called half-life is the time needed for the level to fall by half in the phase considered. The low end stands for rapid decline, the high end for slow decline. Consider `CS(=O)(=O)Nc1ccc(C(=O)C2CCN(CCCc3ccncc3)CC2)cc1.Cl.Cl`, for which the half-life in [19] was 132 min. The “mBP(delta)” value in the data set on Canis familiaris [20] is on record as 2%; with Canis familiaris [21] it was -5%; in the data set with Canis familiaris [22] it was -9%. The “LV dP/dTmax(delta)” value in the data set with Canis familiaris [23] is 7%; with Canis familiaris [24], 13%; in the data set with Canis familiaris [25], 13%. In addition, the QTc delta with Canis familiaris [26] is 15%; in the data set on Canis familiaris [27], 21%; in the data set on Canis familiaris [35], 7%. The “HR(delta)” value is given as -6% in the data set with Canis familiaris [28], -20% in the data set with Canis familiaris [29] and -28% in the data set on Canis familiaris [30]. For the same compound, the “ERP (delta)” value was found to be 19% in the data set on Canis familiaris [31], 15% in the data set with Canis familiaris [32] and 11% in the data set with Canis familiaris [36]. Also, in the data set listed under Cavia porcellus [16], the “Max APD90 (delta)” value was determined as 33%. Moreover, in the data set listed under Cavia porcellus [33], the Vmax entry is “inactive”. Besides, the C10APD90 in the data set listed under Cavia porcellus [34] came to 0.19 µM.
In [37], `CS(=O)(=O)Nc1ccc(C(=O)C2CCN(CCc3cccnc3)CC2)cc1.Cl.Cl` gave a half-life of 84 min. The results for the “mBP(delta)” value in the data set on Canis familiaris [20], in the data set on Canis familiaris [21] and in the data set with Canis familiaris [22] were -2%, -2% and -8%, respectively. The results for the “LV dP/dTmax(delta)” value in the data set with Canis familiaris [23], in the data set on Canis familiaris [24] and with Canis familiaris [25] were 8%, 22% and 26%, respectively. Also, the QTc delta with Canis familiaris [26] worked out at 13%; with Canis familiaris [27], 25%; in the data set on Canis familiaris [35] it was 5%. Moreover, the “HR(delta)” value is listed as -8% in the data set with Canis familiaris [29], -17% in the data set on Canis familiaris [30] and -3% in the data set with Canis familiaris [39]. For the same compound, the “ERP (delta)” value with Canis familiaris [31] turned out to be 19%; with Canis familiaris [38] it was 6%; with Canis familiaris [32], 10%. The compound also registered a C10APD90 in the data set listed under Cavia porcellus [15] of 1.51 µM. In the data set listed under Cavia porcellus [16], the “Max APD90 (delta)” value stood at 20%. Also, in the data set listed under Cavia porcellus [17], the Vmax entry was “inactive”.
In the data set filed under Cavia porcellus [40], `CCCCCCC[N+](CC)(CC)CCCCc1ccc(Cl)cc1` [CLOFILIUM] showed a C10APD90 of 1 µM. In the data set listed under Cavia porcellus [41], the “Max APD90 (delta)” value is 13%. In addition, the Vmax result in the data set listed under Cavia porcellus [42] was “inactive”.
For `Cc1cccc(CCN2CCC(C(=O)c3ccc(NS(C)(=O)=O)cc3)CC2)n1.Cl.Cl`, the entries for the “HR(delta)” value in the data set with Canis familiaris [43], in the data set on Canis familiaris [28] and in the data set on Canis familiaris [29] were -8%, -20% and -30%, respectively. The “mBP(delta)” value is -4% in the data set with Canis familiaris [20] and -6% in the data set on Canis familiaris [21]. For the same compound, the “ERP (delta)” value in the data set on Canis familiaris [44] stood at 6%; in the data set with Canis familiaris [38], 15%; with Canis familiaris [32], 24%. In addition, in the data set listed under Cavia porcellus [45], the C10APD90 was determined as 0.13 µM.

The values are drawn from ChEMBL document CHEMBL1124720, “4'-[(4-Piperidyl)carbonyl]methanesulfonanilides as potent, selective, bioavailable class III antiarrhythmic agents” (J Med Chem, 1990).
